The text below walks through data of PMC12120022, “Discovery and chemical optimisation of a potent, Bi-cyclic antimicrobial inhibitor of Escherichia coli PBP3” (Communications Biology, 2025).

Where a SMILES comes first, the peptide text is derived from it.

One assay deals with T1, EcPBP3 (Escherichia coli, UniProt P0AD68).
T1 construct: For assays, selections and SPR a construct with residues 60–588 which has the N-terminal domain, but not the transmembrane helix, was used; made in house
T1 sequence (P0AD68 60-588): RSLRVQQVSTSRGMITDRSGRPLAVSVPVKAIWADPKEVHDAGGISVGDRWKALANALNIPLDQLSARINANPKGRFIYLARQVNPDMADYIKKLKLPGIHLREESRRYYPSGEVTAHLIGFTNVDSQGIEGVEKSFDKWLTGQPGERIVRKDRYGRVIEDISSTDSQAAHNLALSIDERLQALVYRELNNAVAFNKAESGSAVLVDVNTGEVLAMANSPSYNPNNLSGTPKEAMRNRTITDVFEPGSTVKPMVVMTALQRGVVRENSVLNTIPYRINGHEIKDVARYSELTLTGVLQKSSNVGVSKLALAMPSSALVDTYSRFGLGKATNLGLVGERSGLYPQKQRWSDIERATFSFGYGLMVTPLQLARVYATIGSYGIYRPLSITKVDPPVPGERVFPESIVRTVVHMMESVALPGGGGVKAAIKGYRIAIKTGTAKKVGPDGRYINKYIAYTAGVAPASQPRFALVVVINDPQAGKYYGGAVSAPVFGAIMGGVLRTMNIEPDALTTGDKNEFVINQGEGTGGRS
Kind of assay: Fluorescence polarisation competition assay with BOCILLIN-FL as tracer. It counts as binding. Particulars: competition format; NB, non-binder (100 μM top concentration). How it is done: Binding of output peptides to EcPBP3 was evaluated using a fluorescence polarisation (FP) assay.
[…] 10 µL of protein (9.4 nM) was mixed with either 5 µL of peptide or 5 µL of buffer and then the assay was initiated by the addition of 10 µL of tracer (1 nM) (final volume 25 µL), in a black 384 low bind, low volume plate (Corning). The buffer was 10 mM HEPES (Sigma), 2% (v/v) glycerol (Sigma), 300 mM NaCl (Sigma), adjusted to pH 8. The plate was incubated for 1 h at 25 °C and then read in a PHERAstar FS (BMG) using with an “FP 485 520 520” optic module (excitation 485 nm, emission 520 nm). The gain was determined immediately prior to the read on a tracer-only well.
Dotmatics (Dotmatics) workflows performing the above calculations were used to process the data. Values quoted are the geometric means of at least 2 repeats.
(In general: Polarisation of emitted light reports the rotation of a fluorescent probe.)
For `CC(C)C[C@@H]1NC(=O)[C@@H](NC(=O)[C@H](C)N)CSCCC(=O)N2CN3CN(C2)C(=O)CCSC[C@H](NC(=O)[C@H](CC(N)=O)NC(=O)[C@H](CCC(=O)O)NC1=O)C(=O)N[C@@H](Cc1ccc(O)cc1)C(=O)N[C@@H](Cc1ccc(O)cc1)C(=O)N[C@@H](C(C)C)C(=O)N1CCC[C@H]1C(=O)N[C@@H](Cc1ccc(O)cc1)C(=O)N[C@@H](Cc1ccc(O)cc1)C(=O)NCC(=O)N[C@@H](Cc1ccc(O)cc1)C(=O)N[C@@H](C)C(=O)N[C@H](C(=O)N[C@@H](C)C(N)=O)CSCCC3=O` [Peptide 13] (HELM PEPTIDE1{A.C.L.E.N.C.Y.Y.V.P.Y.Y.G.Y.A.C.A.[am]}|CHEM1{[O=C(CC[*:1])N1CN(C(=O)CC[*:2])CN(C(=O)CC[*:3])C1]}$PEPTIDE1,CHEM1,2:R3-1:R1|PEPTIDE1,CHEM1,6:R3-1:R2|PEPTIDE1,CHEM1,16:R3-1:R3$$$V2.0), the “IC50 (nM) by fluorescence polarisation with Bocillin FL as tracer, Geometric mean (Lower 95% CI of geo. Mean; Upper 95% CI of geo. Mean, n=number of values)” value is given as “showed binding to EcPBP3”.

The assay is the same for the next values; noted with them: competition format; NB, non-binder (100 μM top concentration); read-out: IC50 (nM) by fluorescence polarisation with Bocillin FL as tracer, Geometric mean (Lower 95% CI of geo. Mean; Upper 95% CI of geo. Mean, n=number of values).
Take `CC(C)C[C@@H]1NC(=O)[C@H](CCC(=O)O)NC(=O)[C@@H]2CCCN2C(=O)[C@@H]2CCCN2C(=O)[C@H](CC(C)C)NC(=O)CNC(=O)[C@@H]2CCCN2C(=O)[C@H](Cc2ccc(O)cc2)NC(=O)[C@@H](NC(=O)[C@H](C)N)CSCCC(=O)N2CN3CN(C2)C(=O)CCSC[C@H](NC1=O)C(=O)N[C@@H](CO)C(=O)N1CCC[C@H]1C(=O)N[C@@H](CO)C(=O)N[C@@H](Cc1ccccc1)C(=O)N[C@H](C(=O)N[C@@H](C)C(N)=O)CSCCC3=O` [Peptide 10] (HELM PEPTIDE1{A.C.Y.P.G.L.P.P.E.L.C.S.P.S.F.C.A.[am]}|CHEM1{[O=C(CC[*:1])N1CN(C(=O)CC[*:2])CN(C(=O)CC[*:3])C1]}$PEPTIDE1,CHEM1,2:R3-1:R1|PEPTIDE1,CHEM1,11:R3-1:R2|PEPTIDE1,CHEM1,16:R3-1:R3$$$V2.0): the IC50 (commonly the concentration that inhibits the measured activity by half) was over 100000 nM.

Regarding `CC(C)C[C@@H]1NC(=O)[C@H](C)NC(=O)[C@@H]2CSCCC(=O)N3CN(CN(C3)C(=O)CCSC[C@H](NC(=O)[C@H](C)N)C(=O)N3CCC[C@H]3C(=O)N[C@@H](CCC(=O)O)C(=O)N[C@@H](CCCNC(=N)N)C(=O)N[C@@H](CC(C)C)C(=O)N2)C(=O)CCSC[C@@H](C(=O)N[C@@H](C)C(N)=O)NC(=O)[C@H](CCCNC(=N)N)NC(=O)[C@H](CC(C)C)NC(=O)[C@H]([C@@H](C)O)NC(=O)[C@@H]2CCCN2C(=O)[C@H](CC(C)C)NC(=O)CNC1=O` [Peptide 12] (HELM PEPTIDE1{A.C.P.E.R.L.C.A.L.G.L.P.T.L.R.C.A.[am]}|CHEM1{[O=C(CC[*:1])N1CN(C(=O)CC[*:2])CN(C(=O)CC[*:3])C1]}$PEPTIDE1,CHEM1,2:R3-1:R1|PEPTIDE1,CHEM1,7:R3-1:R2|PEPTIDE1,CHEM1,16:R3-1:R3$$$V2.0), the IC50 was over 100000 nM.

For `CC(C)C[C@@H]1NC(=O)[C@@H](NC(=O)[C@H](C)N)CSCCC(=O)N2CN3CN(C2)C(=O)CCSC[C@H](NC(=O)[C@H](CC(N)=O)NC(=O)[C@H](CCC(=O)O)NC1=O)C(=O)N[C@@H](Cc1ccc(O)cc1)C(=O)N[C@@H](Cc1ccc(O)cc1)C(=O)N[C@@H](C(C)C)C(=O)N1CCC[C@H]1C(=O)N[C@@H](Cc1ccc(O)cc1)C(=O)N[C@@H](Cc1ccc(O)cc1)C(=O)NCC(=O)N[C@@H](Cc1ccc(O)cc1)C(=O)N[C@@H](C)C(=O)N[C@H](C(=O)N[C@@H](C)C(N)=O)CSCCC3=O` [Peptide 13] (HELM PEPTIDE1{A.C.L.E.N.C.Y.Y.V.P.Y.Y.G.Y.A.C.A.[am]}|CHEM1{[O=C(CC[*:1])N1CN(C(=O)CC[*:2])CN(C(=O)CC[*:3])C1]}$PEPTIDE1,CHEM1,2:R3-1:R1|PEPTIDE1,CHEM1,6:R3-1:R2|PEPTIDE1,CHEM1,16:R3-1:R3$$$V2.0), the IC50 worked out at 3800 nM.

In the case of `CC(C)C[C@@H]1NC(=O)[C@H](C(C)C)NC(=O)[C@H](C(C)C)NC(=O)[C@@H]2CCCN2C(=O)[C@H](CCCNC(=N)N)NC(=O)[C@H](C)NC(=O)[C@@H](NC(=O)[C@H](C)N)CSCCC(=O)N2CN3CN(C2)C(=O)CCSC[C@H](NC1=O)C(=O)N[C@@H](Cc1ccc(O)cc1)C(=O)N[C@@H](Cc1c[nH]c2ccccc12)C(=O)N1CCC[C@H]1C(=O)N[C@@H](CCC(=O)O)C(=O)N[C@@H](CC(=O)O)C(=O)N[C@H](C(=O)N[C@@H](C)C(N)=O)CSCCC3=O` [Peptide 15] (HELM PEPTIDE1{A.C.A.R.P.V.V.L.C.Y.W.P.E.D.C.A.[am]}|CHEM1{[O=C(CC[*:1])N1CN(C(=O)CC[*:2])CN(C(=O)CC[*:3])C1]}$PEPTIDE1,CHEM1,2:R3-1:R1|PEPTIDE1,CHEM1,9:R3-1:R2|PEPTIDE1,CHEM1,15:R3-1:R3$$$V2.0), the IC50 was over 100000 nM.

For the compound `CC(C)C[C@@H]1NC(=O)[C@@H]2CSCCC(=O)N3CN(CN(C3)C(=O)CCSC[C@@H](C(=O)N[C@@H](C)C(N)=O)NC(=O)[C@H](Cc3c[nH]c4ccccc34)NC(=O)[C@H](CC(=O)O)NC(=O)[C@H](CC(N)=O)NC(=O)[C@H](CCCCN)NC(=O)[C@H](C)NC1=O)C(=O)CCSC[C@H](NC(=O)[C@H](C)N)C(=O)N[C@@H](C)C(=O)N[C@@H](C)C(=O)N[C@@H](CC(=O)O)C(=O)N[C@@H](CCCNC(=N)N)C(=O)N[C@@H](CC(C)C)C(=O)N[C@@H](Cc1c[nH]c3ccccc13)C(=O)N2` [Peptide 1] (HELM PEPTIDE1{A.C.A.A.D.R.L.W.C.L.A.K.N.D.W.C.A.[am]}|CHEM1{[O=C(CC[*:1])N1CN(C(=O)CC[*:2])CN(C(=O)CC[*:3])C1]}$PEPTIDE1,CHEM1,2:R3-1:R1|PEPTIDE1,CHEM1,9:R3-1:R2|PEPTIDE1,CHEM1,16:R3-1:R3$$$V2.0), the IC50 is over 100000 nM.

For the compound `CC[C@H](C)[C@@H]1NC(=O)[C@H]([C@@H](C)O)NC(=O)[C@H](CC(=O)O)NC(=O)[C@H](C)NC(=O)[C@@H](NC(=O)[C@H](C)N)CSCCC(=O)N2CN3CN(C2)C(=O)CCSC[C@@H](C(=O)N[C@@H](C)C(N)=O)NC(=O)[C@@H]2CCCN2C(=O)[C@H](Cc2ccc(O)cc2)NC(=O)[C@@H]2CCCN2C(=O)[C@H](C(C)C)NC(=O)[C@H](CSCCC3=O)NC(=O)[C@H]([C@@H](C)O)NC(=O)[C@H](CC(C)C)NC(=O)[C@H](CO)NC(=O)[C@H](Cc2ccc(O)cc2)NC1=O` [Peptide 6] (HELM PEPTIDE1{A.C.A.D.T.I.Y.S.L.T.C.V.P.Y.P.C.A.[am]}|CHEM1{[O=C(CC[*:1])N1CN(C(=O)CC[*:2])CN(C(=O)CC[*:3])C1]}$PEPTIDE1,CHEM1,2:R3-1:R1|PEPTIDE1,CHEM1,11:R3-1:R2|PEPTIDE1,CHEM1,16:R3-1:R3$$$V2.0), the IC50 was over 100000 nM.

Turning to `CC(C)C[C@@H]1NC(=O)[C@H](Cc2c[nH]c3ccccc23)NC(=O)[C@H](CCC(=O)O)NC(=O)[C@@H]2CCCN2C(=O)[C@H]([C@@H](C)O)NC(=O)[C@H](CCCCN)NC(=O)[C@H](C)NC(=O)[C@@H](NC(=O)[C@H](C)N)CSCCC(=O)N2CN3CN(C2)C(=O)CCSC[C@@H](C(=O)N[C@@H](C)C(N)=O)NC(=O)[C@H](Cc2ccc(O)cc2)NC(=O)[C@H](C)NC(=O)[C@H](CC(N)=O)NC(=O)[C@H](Cc2ccccc2)NC(=O)CNC(=O)[C@H](CSCCC3=O)NC1=O` [Peptide 3] (HELM PEPTIDE1{A.C.A.K.T.P.E.W.L.C.G.F.N.A.Y.C.A.[am]}|CHEM1{[O=C(CC[*:1])N1CN(C(=O)CC[*:2])CN(C(=O)CC[*:3])C1]}$PEPTIDE1,CHEM1,2:R3-1:R1|PEPTIDE1,CHEM1,10:R3-1:R2|PEPTIDE1,CHEM1,16:R3-1:R3$$$V2.0), the IC50 is over 100000 nM.

With `CC[C@H](C)[C@@H]1NC(=O)[C@@H](NC(=O)[C@H](C)N)CSCCC(=O)N2CN3CN(C2)C(=O)CCSC[C@H](NC(=O)[C@H](CCCNC(=N)N)NC(=O)[C@H](CCC(=O)O)NC(=O)[C@H](CCCNC(=N)N)NC1=O)C(=O)N[C@@H](Cc1c[nH]c2ccccc12)C(=O)N[C@@H](CC(=O)O)C(=O)N[C@@H](CC(C)C)C(=O)N[C@@H](CCCCN)C(=O)N[C@@H](CCC(=O)O)C(=O)N[C@@H](CC(N)=O)C(=O)N[C@@H](CC(=O)O)C(=O)N[C@@H](Cc1c[nH]c2ccccc12)C(=O)N[C@H](C(=O)N[C@@H](C)C(N)=O)CSCCC3=O` [Peptide 14] (HELM PEPTIDE1{A.C.I.R.E.R.C.W.D.L.K.E.N.D.W.C.A.[am]}|CHEM1{[O=C(CC[*:1])N1CN(C(=O)CC[*:2])CN(C(=O)CC[*:3])C1]}$PEPTIDE1,CHEM1,2:R3-1:R1|PEPTIDE1,CHEM1,7:R3-1:R2|PEPTIDE1,CHEM1,16:R3-1:R3$$$V2.0), the IC50 is over 100000 nM.

Regarding `CC(C)C[C@@H]1NC(=O)[C@@H]2CCCN2C(=O)[C@H](Cc2ccc(O)cc2)NC(=O)[C@H](C(C)C)NC(=O)[C@H](C(C)C)NC(=O)[C@H](CCC(=O)O)NC(=O)[C@@H](NC(=O)[C@H](C)N)CSCCC(=O)N2CN3CN(C2)C(=O)CCSC[C@H](NC1=O)C(=O)N[C@@H](Cc1ccc(O)cc1)C(=O)N[C@@H](Cc1c[nH]c2ccccc12)C(=O)N[C@@H](CO)C(=O)N[C@@H](CC(=O)O)C(=O)N[C@H](C(=O)N[C@@H](C)C(N)=O)CSCCC3=O` [Peptide 8] (HELM PEPTIDE1{A.C.E.V.V.Y.P.L.C.Y.W.S.D.C.A.[am]}|CHEM1{[O=C(CC[*:1])N1CN(C(=O)CC[*:2])CN(C(=O)CC[*:3])C1]}$PEPTIDE1,CHEM1,2:R3-1:R1|PEPTIDE1,CHEM1,9:R3-1:R2|PEPTIDE1,CHEM1,14:R3-1:R3$$$V2.0), the IC50 is over 100000 nM.

For `CSCC[C@@H]1NC(=O)[C@H](CC(C)C)NC(=O)[C@@H]2CSCCC(=O)N3CN(CN(C3)C(=O)CCSC[C@@H](C(=O)N[C@@H](C)C(N)=O)NC(=O)[C@H](CC(C)C)NC(=O)[C@H](CCC(=O)O)NC(=O)[C@@H]3CCCN3C(=O)[C@H](Cc3ccccc3)NC1=O)C(=O)CCSC[C@H](NC(=O)[C@H](C)N)C(=O)N[C@@H](CCCNC(=N)N)C(=O)NCC(=O)N[C@@H](CCC(=O)O)C(=O)N[C@@H](CO)C(=O)N[C@@H](CO)C(=O)N[C@@H](Cc1ccccc1)C(=O)N2` [Peptide 4] (HELM PEPTIDE1{A.C.R.G.E.S.S.F.C.L.M.F.P.E.L.C.A.[am]}|CHEM1{[O=C(CC[*:1])N1CN(C(=O)CC[*:2])CN(C(=O)CC[*:3])C1]}$PEPTIDE1,CHEM1,2:R3-1:R1|PEPTIDE1,CHEM1,9:R3-1:R2|PEPTIDE1,CHEM1,16:R3-1:R3$$$V2.0), the IC50 was over 100000 nM.
